Experimental data published in patent US8759334B2, “Compounds useful for the treatment of metabolic and inflammatory diseases” (Galapagos NV, priority 2011, dated 2014).

Tests used:
[1] = target: T1, GPR43 (Homo sapiens, UniProt O15552); assay: Calcium mobilization assay with probenecid; assay type: cell-based; conditions: GPR43 stably expressing cells; triggered with sodium acetate at EC80; 2.5 mM probenecid; read-out: GPR43 assay with probenicid IC50
T1 construct: expressed in transfected cells
T1 sequence (O15552 1-330): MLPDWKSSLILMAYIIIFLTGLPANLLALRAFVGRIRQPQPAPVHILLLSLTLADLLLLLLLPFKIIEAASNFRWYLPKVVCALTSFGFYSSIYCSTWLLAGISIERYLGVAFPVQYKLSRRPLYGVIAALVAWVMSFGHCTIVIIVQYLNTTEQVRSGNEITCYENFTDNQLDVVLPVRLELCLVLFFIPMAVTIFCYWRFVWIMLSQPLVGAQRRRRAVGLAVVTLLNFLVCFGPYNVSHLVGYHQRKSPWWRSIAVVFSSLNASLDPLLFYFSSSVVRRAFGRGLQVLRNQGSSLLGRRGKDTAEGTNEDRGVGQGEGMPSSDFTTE
Method in brief: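 […] being added at rising concentrations to a GPR43 stable line. Before this, cells were dye-loaded (Calcium 4 with 2.5 mM probenecid) for 2 h at 37 °C after overnight plating.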

[2] = target: T1, GPR43; assay: Calcium mobilization assay without probenecid; assay type: cell-based; conditions: GPR43 stably expressing cells, triggered with sodium acetate at EC80, read-out: GPR43 assay without probenicid IC50
Method in brief: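 In GPR43-expressing cells loaded with a Calcium 4 dye, antagonism was tested by a 15 min compound preincubation at 37 °C, then a sodium acetate challenge at EC80, with Ca-flux read on injection. For agonism, Ca-flux was recorded directly on compound injection.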

Row | IC50 [1] [nM] | IC50 [2] [nM] | SMILES
1 | > 1000 | > 1000 | COC(=O)c1cccc(-c2ccc(CC(=O)N3CCC3(C)C(=O)N(C)Cc3ccc(Cl)cc3)cc2)c1 (stereo not shown) [Compound 26, methyl 4′-(2-(2-((4-chlorobenzyl)(methyl)carbamoyl)-2-methylazetidin-1-yl)-2-oxoethyl)biphenyl-3-carboxylate]
2 | > 1000 | 501 to 1000 | Cc1ccc(CN(C)C(=O)C2(C)CCN2C(=O)Cc2cc(C)cc(C)c2)cc1 (stereo not shown) [Compound 6, 1-[2-(3,5-Dimethyl-phenyl)-acetyl]-2-methyl-azetidine-2-carboxylic acid methyl-(4-methyl-benzyl)-amide]
3 | 101 to 500 | > 1000 | Cc1cc(C)cc(CC(=O)N2CCC2(C)C(=O)N(CCC#N)Cc2ccc(Cl)cc2)c1 (stereo not shown) [Compound 77, 1-[2-(3,5-Dimethyl-phenyl)-acetyl]-2-methyl-azetidine-2-carboxylic acid (4-chloro-benzyl)-(2-cyano-ethyl)-amide]
4 | 101 to 500 | 101 to 500 | CCOC(=O)CN(Cc1ccc(Cl)cc1)C(=O)C1(C)CCN1C(=O)Cc1csc2ccccc12 (stereo not shown) [Compound 58, [[1-(2-Benzo[b]thiophen-3-yl-acetyl)-2-methyl-azetidine-2-carbonyl]-(4-chloro-benzyl)-amino]-acetic acid ethyl ester]
5 | > 1000 | > 1000 | Cc1cc(C)cc(CC(=O)N2CCC2(C)C(=O)N(CC(=O)NS(=O)(=O)C(F)(F)F)Cc2ccc(Cl)cc2)c1 (stereo not shown) [Compound 94, 1-[2-(3,5-Dimethyl-phenyl)-acetyl]-2-methyl-azetidine-2-carboxylic acid (4-chloro-benzyl)-(2-oxo-2-trifluoromethanesulfonylamino-ethyl)-amide]
6 | > 1000 | > 1000 | CN(Cc1ccc(Cl)cc1)C(=O)C1(C)CCN1C(=O)Cc1ccccc1Cl (stereo not shown) [Compound 9, 1-[2-(2-Chloro-phenyl)-acetyl]-2-methyl-azetidine-2-carboxylic acid (4-chloro-benzyl)-methyl-amide]
7 | > 1000 | > 1000 | CN(Cc1ccc(Cl)cc1)C(=O)C1(C)CCN1C(=O)Cc1cn(C)c2ccccc12 (stereo not shown) [Compound 91, 2-Methyl-1-[2-(1-methyl-1H-indol-3-yl)-acetyl]-azetidine-2-carboxylic acid (4-chloro-benzyl)-methyl-amide]
8 | > 1000 | > 1000 | Cc1cc(C)cc(CC(=O)N2CCC2(C)C(=O)N(C)Cc2ccc(Cl)c(F)c2)c1 (stereo not shown) [Compound 42, 1-[2-(3,5-Dimethyl-phenyl)-acetyl]-2-methyl-azetidine-2-carboxylic acid (4-chloro-3-fluoro-benzyl)-methyl-amide]
9 | 101 to 500 | 101 to 500 | CC1(C(=O)N(CC(=O)O)Cc2ccc(Cl)cc2)CCN1C(=O)Cc1coc2ccccc12 (stereo not shown) [Compound 78, [[1-(2-Benzofuran-3-yl-acetyl)-2-methyl-azetidine-2-carbonyl]-(4-chloro-benzyl)-amino]-acetic acid]
10 | > 1000 | > 1000 | Cc1ccc(CNC(=O)C2(C)CCN2C(=O)Cc2ccc(Cl)cc2Cl)cc1 (stereo not shown) [Compound 43, 1-[2-(2,4-Dichloro-phenyl)-acetyl]-2-methyl-azetidine-2-carboxylic acid 4-methyl-benzylamide]
11 | > 1000 | > 1000 | CN(Cc1ccc(Cl)cc1)C(=O)C1(C)CCN1C(=O)Cc1ccc(-c2ccc(F)cc2)cc1 (stereo not shown) [Compound 15, 1-[2-(4′-Fluoro-biphenyl-4-yl)-acetyl]-2-methyl-azetidine-2-carboxylic acid (4-chloro-benzyl)-methyl-amide]
12 | > 1000 | > 1000 | COc1cccc(-c2ccc(CC(=O)N3CCC3(C)C(=O)N(C)Cc3ccc(Cl)cc3)cc2)c1 (stereo not shown) [Compound 38, 1-[2-(3′-Methoxy-biphenyl-4-yl)-acetyl]-2-methyl-azetidine-2-carboxylic acid (4-chloro-benzyl)-methyl-amide]
13 | 101 to 500 | 101 to 500 | CC1(C(=O)N(CCC(=O)O)Cc2ccc(Cl)cc2)CCN1C(=O)Cc1csc2ccccc12 (stereo not shown) [Compound 88, 3-[[1-(2-Benzo[b]thiophen-3-yl-acetyl)-2-methyl-azetidine-2-carbonyl]-(4-chloro-benzyl)-amino]-propionic acid]
14 | 101 to 500 | 101 to 500 | Cc1cc(C)cc(CC(=O)N2CCC2(C)C(=O)N(CC#N)Cc2ccc(Cl)cc2)c1 (stereo not shown) [Compound 68, 1-[2-(3,5-dimethyl-phenyl)-acetyl]-2-methyl-azetidine-2-carboxylic acid (4-chloro-benzyl)-cyanomethyl-amide]
15 | > 1000 | > 1000 | Cc1cccc(CNC(=O)C2(C)CCN2C(=O)Cc2ccc(Cl)cc2Cl)c1 (stereo not shown) [Compound 51, 1-[2-(2,4-Dichloro-phenyl)-acetyl]-2-methyl-azetidine-2-carboxylic acid 3-methyl-benzylamide]
16 | > 1000 | > 1000 | CN(Cc1ccc(Cl)cc1)C(=O)C1(C)CCN1C(=O)Cc1ccc(Cl)c(Cl)c1 (stereo not shown) [Compound 18, 1-[2-(3,4-Dichloro-phenyl)-acetyl]-2-methyl-azetidine-2-carboxylic acid (4-chloro-benzyl)-methyl-amide]
17 | > 1000 | > 1000 | Cc1cc(C)cc(CC(=O)N2CCC2(C)C(=O)N(C)Cc2ccc(CC(C)C)cc2)c1 (stereo not shown) [Compound 34, 1-[2-(3,5-Dimethyl-phenyl)-acetyl]-2-methyl-azetidine-2-carboxylic acid (4-isobutyl-benzyl)-methyl-amide]
18 | > 1000 | > 1000 | Cc1cc(C)cc(CC(=O)N2CCC2(C)C(=O)N(CC(=O)O)Cc2cccc(C)c2)c1 (stereo not shown) [Compound 59, [{1-[2-(3,5-Dimethyl-phenyl)-acetyl]-2-methyl-azetidine-2-carbonyl}-(3-methyl-benzyl)-amino]-acetic acid]
19 | > 1000 | > 1000 | Cc1c(C(=O)N2CCC2(C)C(=O)N(C)Cc2ccc(Cl)cc2)oc2ccccc12 (stereo not shown) [Compound 50, N-(4-chlorobenzyl)-N,2-dimethyl-1-(3-methylbenzofuran-2-carbonyl)azetidine-2-carboxamide]
20 | 101 to 500 | 101 to 500 | Cc1cc(C)cc(CC(=O)N2CCC2(C)C(=O)N(CC(N)=O)Cc2ccc(Cl)cc2)c1 (stereo not shown) [Compound 75, 1-[2-(3,5-Dimethyl-phenyl)-acetyl]-2-methyl-azetidine-2-carboxylic acid carbamoylmethyl-(4-chloro-benzyl)-amide]
21 | > 1000 | > 1000 | Cc1cc(C)cc(CC(=O)N2CCC2(C)C(=O)N(C)Cc2cccc(Cl)c2)c1 (stereo not shown) [Compound 5, 1-[2-(3,5-Dimethyl-phenyl)-acetyl]-2-methyl-azetidine-2-carboxylic acid (3-chloro-benzyl)-methyl-amide]
22 | > 1000 | > 1000 | Cc1cc(C)cc(CC(=O)N2CCC2(C)C(=O)N(C)Cc2ccc(C(C)(C)C)cc2)c1 (stereo not shown) [Compound 32, 1-[2-(3,5-Dimethyl-phenyl)-acetyl]-2-methyl-azetidine-2-carboxylic acid (4-tert-butyl-benzyl)-methyl-amide]
23 | > 1000 | > 1000 | CC1(C(=O)NCc2ccc(Cl)cc2)CCN1C(=O)C1(c2ccc(Cl)cc2Cl)CC1 (stereo not shown) [Compound 52, N-(4-chlorobenzyl)-1-(1-(2,4-dichlorophenyl)cyclopropanecarbonyl)-2-methylazetidine-2-carboxamide]
24 | > 1000 | > 1000 | CN(Cc1ccc(Cl)cc1)C(=O)C1(C)CCN1C(=O)Cc1ccc(-c2ccccc2)cc1 (stereo not shown) [Compound 20, 1-(2-Biphenyl-4-yl-acetyl)-2-methyl-azetidine-2-carboxylic acid (4-chloro-benzyl)-methyl-amide]
25 | > 1000 | > 1000 | Cc1ccccc1-c1ccc(CC(=O)N2CCC2(C)C(=O)N(C)Cc2ccc(Cl)cc2)cc1 (stereo not shown) [Compound 25, 2-Methyl-1-[2-(2′-methyl-biphenyl-4-yl)-acetyl]-azetidine-2-carboxylic acid (4-chloro-benzyl)-methyl-amide]
26 | > 1000 | > 1000 | CC1(C(=O)N(CC(=O)O)Cc2ccc(Cl)cc2)CCN1C(=O)Cc1noc2ccccc12 (stereo not shown) [Compound 79, [[1-(2-Benzo[d]isoxazol-3-yl-acetyl)-2-methyl-azetidine-2-carbonyl]-(4-chloro-benzyl)-amino]-acetic acid]
27 | > 1000 | 501 to 1000 | Cc1cc(C)cc(CC(=O)N2CCC2(C)C(=O)N(C)Cc2ccc(OC(F)(F)F)cc2)c1 (stereo not shown) [Compound 37, 1-[2-(3,5-Dimethyl-phenyl)-acetyl]-2-methyl-azetidine-2-carboxylic acid methyl-(4-trifluoromethoxy-benzyl)-amide]
28 | 0.01 to 100 | 0.01 to 100 | CC1(C(=O)N(CCCc2nnn[nH]2)Cc2ccc(Cl)cc2)CCN1C(=O)Cc1csc2ccccc12 (stereo not shown) [Compound 100, 1-(2-Benzo[b]thiophen-3-yl-acetyl)-2-methyl-azetidine-2-carboxylic acid (4-chloro-benzyl)-[3-(1H-tetrazol-5-yl)-propyl]-amide]
29 | 101 to 500 | 101 to 500 | COC(=O)CCCN(Cc1ccc(Cl)cc1)C(=O)C1(C)CCN1C(=O)Cc1cc(C)cc(C)c1 (stereo not shown) [Compound 63, 4-((4-Chloro-benzyl)-{1-[2-(3,5-dimethyl-phenyl)-acetyl]-2-methyl-azetidine-2-carbonyl}-amino)-butyric acid methyl ester]
